{"source": "patent US20020137152A1", "about": "“Fermentation process for epothilones” (priority 2000, published 2002)", "key": {"[1]": {"system": "Sorangium cellulosum strain So ce 90", "test": "Production of epothilones A, B, C and D by So ce 90 fermented in the presence of a P450 inhibitor, HPLC quantitation", "format": "cell-based", "conditions": "10 mM metyrapone in production medium, 7 days", "experimental": "(§1) To prepare a seed culture, transfer cells from the DSM 6773 ampoule into a 250 mL baffled Erleneyer flask with 38 mm silicone foam closures containing 50 mL of sterile soybean meal. Soybean meal contains potato starch (Product No. S-2004, Sigma), 8 g/L; defatted soybean meal (Type 4890, Archer Daniels Midland), 2 g/L; yeast extract (Product No. BP 1422-500, Fisher Biotech), 2g/L; Iron (III) sodium salt EDTA (Product No. EDFS, Sigma), 0.008 g/L; MgSO4.7H20 (Product No. M-5921, Sigma), 1 g/L; CaCl2.2H20 (Product No. C-3991, Sigma), 1 g/L; glucose (Product No. G-5400, Sigma), 2g/L; HEPES buffer (Product No. H-3375, Sigma), 11.5 g/L. Use deionized water, and adjust pH to 7.4 with 10% KOH. Sterilize the flasks by autoclaving at 121° C. for at least 30 minutes. After autoclaving, add 2-3 drops of antifoam B to prevent foaming. Incubate the culture at 32° C. in a 250 RPM shaker for 4 days. After 4 days, the culture should appear an orange color. Production cultures were prepared by sterilizing 50 mL of sterile soybean meal medium and 1 g of Amberlite XAD-16 absorption resin in a 250 mL baffled Erlenmeyer flask. Metyrapone (Product No. 856525, Sigma) is prepared by reconstituting to a final concentration of 2.5 M with 50:50 (v/v) DMSO:H2O. Metyrapone was added to a final concentration of 5 mM and 10 mM in each flask. 5 mL of the seed culture was inoculated to each flask and incubated at 30° C. in a shaker at 250 RPM for 7 days.\nTo extract epothilone C and/or D, transfer the culture into a 50 mL centrifuge tube (Product no. 21008-178, VWR Scientific Products). Decant the excess medium in the centrifuge tube without pouring off any of the resin. Wash the XAD-16 resin with 25 mL of H2O and allow the XAD-16 resin to settle by gravity in the tube. Carefully decant the H2O, and add 20 mL of 100% methanol to the tube. Place the centrifuge tube on a shaker at 175 RPM for 20-30 minutes to extract the epothilone products from the resin. Allow the XAD-16 pellets to settle, and transfer 2 mL using a pipette to a HPLC tube (Product nos. C4010-13, C4010-60A, National Scientific Company). Quantitation of epothilones C and D was performed by HPLC analysis with UV-DAD detection at 250 nm. 50 uL of the methanol extract was injected across a 4.6×10 mm guard column (Inertsil, C18 OD 53, 5um) and a 4.6 x 150 mm […] (Inertisil, C18 OD 53, 5 um). The assay method was isocratic, eluting with 60% acetonitrile and 40% water for 18 minutes at a flow rate of 1 ml/min. Under these conditions, epothilone C was detected at 10.3 minutes and epothilone D was detected at 13.0 minutes. The results showing the highest production of epothilones C and D, and the lowest production of epothilones A and B, in the presence of metyrapone and various other inhibitors is shown in FIG. 1. […]"}, "[2]": {"system": "Sorangium cellulosum strain So ce 90", "test": "Effect of metyrapone on growth of So ce 90 (FIG. 2)", "format": "cell-based", "conditions": "metyrapone at 5 mM and 10 mM", "experimental": "as §1, with “Production cultures were prepared by sterilizing 50 mL of sterile soybean meal medium and 1 g of Amberlite XAD-16 absorption resin in a 250 mL baffled Erlenmeyer flask. Metyrapone (Product No. 856525, Sigma) is prepared by reconstituting to a final concentration of 2.5 M with 50:50 (v/v) DMSO:H2O. Metyrapone was added to a final concentration of 5 mM and 10 mM in each flask. 5 mL of the seed culture was inoculated to each flask and incubated at 30° C. in a shaker at 250 RPM for 7 days.” left out\nTo extract epothilone C and/or D, transfer the culture into a 50 mL centrifuge tube (Product no. 21008-178, VWR Scientific Products). […] Quantitation of epothilones C and D was performed by HPLC analysis with UV-DAD detection at 250 nm. […] Under these conditions, epothilone C was detected at 10.3 minutes and epothilone D was detected at 13.0 minutes. […]"}, "[3]": {"system": "breast and colon tumor cell lines", "conditions": "Hofle et al., 1996; cited from earlier work"}, "eukaryotic cells": {"system": "eukaryotic cells", "conditions": "cited from earlier work; for cytotoxic activity against eukaryotic cells: Hofle et al., 1996; for cytotoxicity relative to epothilones A and B: desoxy counterparts compared with epothilones A and B"}, "[4]": {"conditions": "Chou et al., 1998; cited from earlier work"}, "[5]": {"conditions": "Harris et al., 1999; cited from earlier work"}, "EpoK": {"target": "T1, EpoK (Sorangium cellulosum, UniProt Q9KIZ4)", "T1 construct": "His6 (six histidine residues); made in house; host or cells: E. coli BL21(DE3) with pREP4-groELS; plasmids pKOS55-121 (N-terminal his) and pKOS55-129 (C-terminal his) in pET22b", "T1 sequence (Q9KIZ4 1-419)": "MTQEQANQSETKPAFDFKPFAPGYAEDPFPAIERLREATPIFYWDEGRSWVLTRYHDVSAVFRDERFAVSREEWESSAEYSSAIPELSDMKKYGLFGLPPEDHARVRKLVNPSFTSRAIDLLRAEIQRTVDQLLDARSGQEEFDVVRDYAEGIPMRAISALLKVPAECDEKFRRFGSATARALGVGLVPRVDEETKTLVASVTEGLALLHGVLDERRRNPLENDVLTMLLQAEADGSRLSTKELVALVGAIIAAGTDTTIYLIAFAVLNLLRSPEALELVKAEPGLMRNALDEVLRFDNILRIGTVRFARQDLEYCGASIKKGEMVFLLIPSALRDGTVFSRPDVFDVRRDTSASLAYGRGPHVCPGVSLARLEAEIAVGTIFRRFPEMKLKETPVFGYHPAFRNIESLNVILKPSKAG", "test": "EpoK assay: conversion of epothilone D to epothilone B by recombinant his-tagged EpoK, LC/MS", "format": "biochemical", "conditions": "30° C., 67 minutes", "description": "This Example describes the construction of E. coli expression vectors for heterologous expression of the Sorangium cellulosum epoK gene. The E. coli produced EpoK enzyme can be used in assays to identify inhibitors for use in the methods of the invention. The epoK gene product was expressed in E. coli as a fusion protein with a polyhistidine tag (his tag). The fusion protein was purified and used to convert epothilone D to epothilone B. This assay can be readily adapted to identify EpoK inhibitors.\nPurification of EpoK was performed as follows. Plasmids pKOS55-121 and pKOS55-129 were transformed into BL21(DE3) containing the groELS expressing plasmid pREP4-groELS (Caspers et al., 1994, Cellular and Molecular Biology 40(5):635-644). The strains were inoculated into 250 mL of M9 medium supplemented with 2 mM MgSO4, 1% glucose, 20 mg thiamine, 5 mg FeCl2, 4 mg CaCl2 and 50 mg levulinic acid. The cultures were grown to an OD600 between 0.4 and 0.6, at which point IPTG was added to 1 mM, and the cultures were allowed to grow for an additional two hours. The cells were harvested and frozen at −80° C. The frozen cells were resuspended in 10 ml of buffer 1 (5 mM imidizole, 500 mM NaCl, and 45 mM Tris pH 7.6) and were lysed by sonicating three times for 15 seconds each on setting 8. The cellular debris was pelleted by centrifugation in an SS-34 rotor at 16,000 rpm for 30 minutes. The supernatant was removed and centrifuged again at 16,000 rpm for 30 minutes. The supernatant was loaded onto a 5 mL nickel column (Novagen), after which the column was washed with 50 mL of buffer 1 (Novagen). EpoK was eluted with a gradient from 5 mM to 1M imidizole. Fractions containing EpoK were pooled and dialyzed twice against 1 L of dialysis buffer (45 mM Tris pH7.6, 0.2 mM DTT, 0.1 mM EDTA, and 20% glycerol). Aliquots were frozen in liquid nitrogen and stored at −80° C. The protein preparations were greater than 90% pure.\nThe EpoK assay was performed as follows. Briefly, reactions consisted of 50 mM Tris (pH7.5), 21 µM spinach ferredoxin, 0.132 units of spinach ferredoxin: NADP^+oxidoreductase, 0.8 units of glucose-6-phosphate dehydrogenase, 1.4 mM NADP, and 7.1 mM glucose-6-phosphate, 100 μM or 200 ,μM epothilone D (a generous gift of S. Danishefsky), and 1.7 ,μM amino terminal his tagged EpoK or 1.6 μM carboxy terminal his-tagged EpoK in a 100 μL volume. The reactions were incubated at 30° C. for 67 minutes and stopped by heating at 90° C. for 2 minutes. The insoluble material was removed by centrifugation, and 50 μL of the supernatant were analyzed by LC/MS. […] In the presence of 200 μM, conversion was 44% and 21%, respectively."}}, "data": [{"smiles": "CC(C)(C(=O)c1cccnc1)c1cccnc1", "note": "[metyrapone, 2-methyl-1,2-di-3-pyridyl-1-propanone]", "values": [{"measurement": "epothilone D produced by So ce 90", "setting": "[1]; without inhibitor 0.5 mg/L", "value": 0.1, "unit": "mg/L"}, {"measurement": "epothilone C produced by So ce 90", "setting": "[1]; without inhibitor 1.0 mg/L", "value": 0.5, "unit": "mg/L"}, {"measurement": "epothilone B produced by So ce 90", "setting": "[1]; without inhibitor 1.7 mg/L", "value": 0.3, "unit": "mg/L"}, {"measurement": "epothilone A produced by So ce 90", "setting": "[1]; without inhibitor 3.6 mg/L", "value": 0.9, "unit": "mg/L"}, {"measurement": "effect on growth of So ce 90", "setting": "[2]", "value": "does not detrimentally inhibit the growth"}]}, {"smiles": "C/C(=C\\c1csc(C)n1)[C@@H]1C[C@@H]2O[C@@H]2CCC[C@H](C)[C@H](O)[C@@H](C)C(=O)C(C)(C)[C@@H](O)CC(=O)O1", "note": "[epothilone A]", "values": [{"measurement": "activity against breast and colon tumor cell lines", "setting": "[3]", "value": "noticeable activity and selectivity"}, {"measurement": "cytotoxic activity against eukaryotic cells", "setting": "eukaryotic cells", "value": "broad cytotoxic activity"}]}, {"smiles": "C/C(=C\\c1csc(C)n1)[C@@H]1C[C@@H]2O[C@]2(C)CCC[C@H](C)[C@H](O)[C@@H](C)C(=O)C(C)(C)[C@@H](O)CC(=O)O1", "note": "[epothilone B]", "values": [{"measurement": "activity against breast and colon tumor cell lines", "setting": "[3]", "value": "noticeable activity and selectivity"}, {"measurement": "cytotoxic activity against eukaryotic cells", "setting": "eukaryotic cells", "value": "broad cytotoxic activity"}]}, {"smiles": "C/C(=C\\c1csc(C)n1)[C@@H]1C/C=C\\CCC[C@H](C)[C@H](O)[C@@H](C)C(=O)C(C)(C)[C@@H](O)CC(=O)O1", "note": "[epothilone C]", "values": [{"measurement": "cytotoxicity relative to epothilones A and B", "setting": "eukaryotic cells", "value": "less cytotoxic"}]}, {"smiles": "C/C1=C/C[C@@H](/C(C)=C/c2csc(C)n2)OC(=O)C[C@H](O)C(C)(C)C(=O)[C@H](C)[C@@H](O)[C@@H](C)CCC1", "note": "[epothilone D]", "values": [{"measurement": "toxicity among naturally occurring epothilones studied", "setting": "[4]", "value": "lowest toxicity"}, {"measurement": "efficacy among naturally occurring epothilones studied", "setting": "[5]", "value": "greatest efficacy"}, {"measurement": "cytotoxicity relative to epothilones A and B", "setting": "eukaryotic cells", "value": "less cytotoxic"}, {"measurement": "conversion of epothilone D to epothilone B", "setting": "EpoK; 100 μM epothilone D, 1.6 μM carboxy terminal his-tagged EpoK", "value": 58, "unit": "%"}, {"measurement": "conversion of epothilone D to epothilone B", "setting": "EpoK; 100 μM epothilone D, 1.7 μM amino terminal his tagged EpoK", "value": 82, "unit": "%"}, {"measurement": "conversion of epothilone D to epothilone B", "setting": "EpoK; 200 μM epothilone D, 1.6 μM carboxy terminal his-tagged EpoK", "value": 21, "unit": "%"}, {"measurement": "conversion of epothilone D to epothilone B", "setting": "EpoK; 200 μM epothilone D, 1.7 μM amino terminal his tagged EpoK", "value": 44, "unit": "%"}]}]}
